Reference: paper PMC10557616 (bioRxiv, 2023)

Assays:
Assay type in all cases: biochemical
Settings in all cases: phosphocreatine as phosphate donor
[1] = target: T1, CKM (Homo sapiens, UniProt P06732); assay: uHPLC-MS detection of ATP
[2] = target: T2, creatine kinase U-type (CKMT1) (Homo sapiens, UniProt P12532); assay: uHPLC-MS detection of ATP
[3] = target: T2, creatine kinase U-type (CKMT1); assay: uHPLC-MS detection of TFV-DP
[4] = target: T1, CKM; assay: uHPLC-MS detection of TFV-DP

T1 sequence (P06732 whole entry): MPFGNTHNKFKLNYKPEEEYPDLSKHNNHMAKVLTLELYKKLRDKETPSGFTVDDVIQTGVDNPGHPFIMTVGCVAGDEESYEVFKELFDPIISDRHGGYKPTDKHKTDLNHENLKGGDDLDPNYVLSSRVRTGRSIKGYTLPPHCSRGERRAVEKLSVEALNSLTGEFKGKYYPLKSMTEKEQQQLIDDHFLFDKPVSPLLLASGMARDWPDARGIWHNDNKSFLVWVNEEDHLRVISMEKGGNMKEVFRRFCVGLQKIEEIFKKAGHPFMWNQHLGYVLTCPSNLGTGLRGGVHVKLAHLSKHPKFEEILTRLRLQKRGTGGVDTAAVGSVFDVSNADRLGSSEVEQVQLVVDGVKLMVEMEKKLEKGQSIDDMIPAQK

| Structure (SMILES) | uHPLC-MS detection of ATP [1] | uHPLC-MS detection of ATP [2] | uHPLC-MS detection of TFV-DP [3] | uHPLC-MS detection of TFV-DP [4] |
| --- | --- | --- | --- | --- |
| Nc1ncnc2c1ncn2[C@@H]1O[C@H](COP(=O)(O)OP(=O)(O)O)[C@@H](O)[C@H]1O [ADP] | the proteins were incubated with phosphocreatine and ADP and ATP was detected by uHPLC-MS | the proteins were incubated with phosphocreatine and ADP and ATP was detected by uHPLC-MS | – | – |
| C[C@H](Cn1cnc2c(N)ncnc21)OCP(=O)(O)OP(=O)(O)O [TFV-MP] | – | – | no significant differences in TFV-DP levels between the CKM, CKB, or CKMT1 catalyzed reactions | no significant differences in TFV-DP levels between the CKM, CKB, or CKMT1 catalyzed reactions |
